According to patent US6525001B1, “Substituted pyrimidine and pyridine herbicides” (Mid-American Commercialization Corporation, priority 1997, dated 2003):

Assays:
Assay in all cases: Test B pre-/postemergence
Type in all cases: in vivo
Design in all cases: key: 0 is no effect; 10 is complete control
[1] = tested on: wheat (Triticum aestivum)
Summary of the method: (§1)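 Compounds in a surfactant-containing, non-phytotoxic solvent blend are applied to freshly planted seed (preemergence) and, concurrently, to seedlings of 2 to 18 cm at 1–4 leaves (postemergence). Plants stay in the greenhouse twelve to sixteen days and are then scored visually from 0 (no effect) to 10 (complete control).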

rape (Brassica napus) = tested on: rape (Brassica napus)
Summary of the method: as §1

[2] = tested on: cocklebur (Xanthium strumarium)
Summary of the method: as §1

[3] = tested on: sugar beet (Beta vulgaris)
Summary of the method: as §1

[4] = tested on: bedstraw (Galium aparine)
Summary of the method: as §1

[5] = tested on: broadleaf signalgrass (Brachiaria decumbens)
Summary of the method: as §1

corn (Zea mays) = tested on: corn (Zea mays)
Summary of the method: as §1

[6] = tested on: giant foxtail (Setaria faberii)
Summary of the method: as §1

soybean (Glycine max) = tested on: soybean (Glycine max)
Summary of the method: as §1

[7] = tested on: pigweed (Amaranthus retroflexus)
Summary of the method: as §1

[8] = tested on: momingglory (Ipomoea hederacea)
Summary of the method: as §1

[9] = tested on: blackgrass (Alopecurus myosuroides)
Summary of the method: as §1

[10] = tested on: velvetleaf (Abutilon theophrasti)
Summary of the method: as §1

[11] = tested on: crabgrass (Digitaria sanguinalis); details: for Plant response rating, Crabgrass: Preemergence
Summary of the method: as §1

[12] = Preemergence, Rate 62 g/ha, scale of 0 to 10

Cc1cnc(-c2ccc(C(F)(F)F)cc2)nc1C(=O)c1cccc(OC(F)(F)F)c1 [Compound 75]
Plant response rating, Wheat [1, 12]: 0
Wheat plant response rating ([1]; Rate 62 g/ha, Postemergence): 2
Wheat plant response rating ([1]; Rate 125 g/ha, Postemergence): 2
Plant response rating, Wheat ([1]; Rate 125 g/ha, Preemergence): 4
Plant response rating, Wheat ([1]; Rate 250 g/ha, Postemergence): 3
Plant response rating, Wheat ([1]; Rate 250 g/ha, Preemergence): 4
Plant response rating, Wheat ([1]; Rate 500 g/ha, Preemergence): 5
Plant response rating, Rape (rape (Brassica napus); [12]): 2
Rape plant response rating (rape (Brassica napus); Rate 62 g/ha, Postemergence): 5
Rape plant response rating (rape (Brassica napus); Rate 125 g/ha, Postemergence): 7
Plant response rating, Rape (rape (Brassica napus); Rate 125 g/ha, Preemergence): 3
Plant response rating, Rape (rape (Brassica napus); Rate 250 g/ha, Postemergence): 9
Plant response rating, Rape (rape (Brassica napus); Rate 250 g/ha, Preemergence): 4
Plant response rating, Rape (rape (Brassica napus); Rate 500 g/ha, Preemergence): 4
Plant response rating, Cocklebur [2, 12]: 0
Cocklebur plant response rating ([2]; Rate 62 g/ha, Postemergence): 7
Cocklebur plant response rating ([2]; Rate 125 g/ha, Postemergence): 7
Plant response rating, Cocklebur ([2]; Rate 125 g/ha, Preemergence): 0
Plant response rating, Cocklebur ([2]; Rate 250 g/ha, Postemergence): 7
Plant response rating, Cocklebur ([2]; Rate 250 g/ha, Preemergence): 2
Plant response rating, Cocklebur ([2]; Rate 500 g/ha, Preemergence): 9
Plant response rating, Sugarbeets [3, 12]: 9
Sugarbeets plant response rating ([3]; Rate 62 g/ha, Postemergence): 10
Sugarbeets plant response rating ([3]; Rate 125 g/ha, Postemergence): 10
Plant response rating, Sugarbeets ([3]; Rate 125 g/ha, Preemergence): 10
Plant response rating, Sugarbeets ([3]; Rate 250 g/ha, Postemergence): 10
Plant response rating, Sugarbeets ([3]; Rate 250 g/ha, Preemergence): 10
Plant response rating, Sugarbeets ([3]; Rate 500 g/ha, Preemergence): 10
Plant response rating, Bedstraw [4, 12]: 3
Bedstraw plant response rating ([4]; Rate 62 g/ha, Postemergence): 5
Bedstraw plant response rating ([4]; Rate 125 g/ha, Postemergence): 9
Plant response rating, Bedstraw ([4]; Rate 125 g/ha, Preemergence): 6
Plant response rating, Bedstraw ([4]; Rate 250 g/ha, Postemergence): 9
Plant response rating, Bedstraw ([4]; Rate 250 g/ha, Preemergence): 6
Plant response rating, Bedstraw ([4]; Rate 500 g/ha, Preemergence): 8
B. signalgrass plant response rating ([5]; Rate 62 g/ha, Postemergence): 2
B. signalgrass plant response rating ([5]; Rate 62 g/ha, Preemergence): 8
B. signalgrass plant response rating ([5]; Rate 125 g/ha, Postemergence): 2
Plant response rating, B. signalgrass ([5]; Rate 125 g/ha, Preemergence): 9
Plant response rating, B. signalgrass ([5]; Rate 250 g/ha, Postemergence): 3
Plant response rating, B. signalgrass ([5]; Rate 250 g/ha, Preemergence): 9
Plant response rating, B. signalgrass ([5]; Rate 500 g/ha, Preemergence): 9
Plant response rating, Corn (corn (Zea mays); [12]): 0
Corn plant response rating (corn (Zea mays); Rate 62 g/ha, Postemergence): 2
Corn plant response rating (corn (Zea mays); Rate 125 g/ha, Postemergence): 3
Plant response rating, Corn (corn (Zea mays); Rate 125 g/ha, Preemergence): 0
Plant response rating, Corn (corn (Zea mays); Rate 250 g/ha, Postemergence): 3
Plant response rating, Corn (corn (Zea mays); Rate 250 g/ha, Preemergence): 1
Plant response rating, Corn (corn (Zea mays); Rate 500 g/ha, Preemergence): 2
Plant response rating, Giant foxtail [6, 12]: 1
Giant foxtail plant response rating ([6]; Rate 62 g/ha, Postemergence): 1
Giant foxtail plant response rating ([6]; Rate 125 g/ha, Postemergence): 2
Plant response rating, Giant foxtail ([6]; Rate 125 g/ha, Preemergence): 5
Plant response rating, Giant foxtail ([6]; Rate 250 g/ha, Postemergence): 4
Plant response rating, Giant foxtail ([6]; Rate 250 g/ha, Preemergence): 5
Plant response rating, Giant foxtail ([6]; Rate 500 g/ha, Preemergence): 9
Plant response rating, Soybean (soybean (Glycine max); [12]): 0
Soybean plant response rating (soybean (Glycine max); Rate 62 g/ha, Postemergence): 3
Soybean plant response rating (soybean (Glycine max); Rate 125 g/ha, Postemergence): 3
Plant response rating, Soybean (soybean (Glycine max); Rate 125 g/ha, Preemergence): 0
Plant response rating, Soybean (soybean (Glycine max); Rate 250 g/ha, Postemergence): 3
Plant response rating, Soybean (soybean (Glycine max); Rate 250 g/ha, Preemergence): 0
Plant response rating, Soybean (soybean (Glycine max); Rate 500 g/ha, Preemergence): 1
Plant response rating, Redroot pigweed [7, 12]: 9
Redroot pigweed plant response rating ([7]; Rate 62 g/ha, Postemergence): 9
Redroot pigweed plant response rating ([7]; Rate 125 g/ha, Postemergence): 9
Plant response rating, Redroot pigweed ([7]; Rate 125 g/ha, Preemergence): 10
Plant response rating, Redroot pigweed ([7]; Rate 250 g/ha, Postemergence): 10
Plant response rating, Redroot pigweed ([7]; Rate 250 g/ha, Preemergence): 10
Plant response rating, Redroot pigweed ([7]; Rate 500 g/ha, Preemergence): 10
Plant response rating, Morningglory [8, 12]: 6
Morningglory plant response rating ([8]; Rate 62 g/ha, Postemergence): 10
Morningglory plant response rating ([8]; Rate 125 g/ha, Postemergence): 10
Plant response rating, Morningglory ([8]; Rate 125 g/ha, Preemergence): 10
Plant response rating, Morningglory ([8]; Rate 250 g/ha, Postemergence): 10
Plant response rating, Morningglory ([8]; Rate 250 g/ha, Preemergence): 10
Plant response rating, Morningglory ([8]; Rate 500 g/ha, Preemergence): 10
Plant response rating, Blackgrass [9, 12]: 3
Blackgrass plant response rating ([9]; Rate 62 g/ha, Postemergence): 3
Blackgrass plant response rating ([9]; Rate 125 g/ha, Postemergence): 6
Plant response rating, Blackgrass ([9]; Rate 125 g/ha, Preemergence): 8
Plant response rating, Blackgrass ([9]; Rate 250 g/ha, Postemergence): 8
Plant response rating, Blackgrass ([9]; Rate 250 g/ha, Preemergence): 9
Plant response rating, Blackgrass ([9]; Rate 500 g/ha, Preemergence): 10
Plant response rating, Velvetleaf [10, 12]: 2
Velvetleaf plant response rating ([10]; Rate 62 g/ha, Postemergence): 8
Velvetleaf plant response rating ([10]; Rate 125 g/ha, Postemergence): 9
Plant response rating, Velvetleaf ([10]; Rate 125 g/ha, Preemergence): 8
Plant response rating, Velvetleaf ([10]; Rate 250 g/ha, Postemergence): 9
Plant response rating, Velvetleaf ([10]; Rate 250 g/ha, Preemergence): 9
Plant response rating, Velvetleaf ([10]; Rate 500 g/ha, Preemergence): 10
Plant response rating, Crabgrass ([11]; Rate 62 g/ha, scale of 0 to 10): 6
Crabgrass plant response rating ([11]; Rate 125 g/ha, Postemergence): 4
Plant response rating, Crabgrass ([11]; Rate 125 g/ha): 9
Plant response rating, Crabgrass ([11]; Rate 250 g/ha): 9
Plant response rating, Crabgrass ([11]; Rate 500 g/ha): 10
